We go through one molecule from patent US20100143383A1, “OXGR1 AGONISTS FOR USE IN THERAPIES FOR METABOLIC DISORDERS” (priority 2008, published 2010).

One experiment concerns isolated mouse islets. The experiment in a line: glucose-stimulated insulin secretion (GSIS/GDIS) in isolated mouse islets, insulin by ELISA. Format: cell-based. Particulars: WT C57BL/6J mouse islets, 60 min, FIG. 3. The protocol:
Pancreatic islets of Langerhans were isolated from the pancreata of wild type (WT) C57BL/6J mice (Taconic Farm, N.Y.) by collagenase digestion and discontinuous Ficoll gradient separation, a modification of the original method of Lacy and Kostianovsky (Lacy P E, Kostianovsky M: Diabetes 16:35-39, 1967). The islets were cultured overnight in RPMI 1640 medium (11 mM glucose) before GDIS assay.
To measure GSIS, islets were first preincubated for 30 min in the Krebs-Ringer bicarbonate (KRB) buffer with 2 mM glucose (in petri dishes). The KRB medium contains 143.5 mM Na+, 5.8 mM K+, 2.5 mM Ca2+, 1.2 mM Mg2+, 124.1 mM Cl−, 1.2 mM PO43−, 1.2 mM […], 25 mM CO32−2 mg/ml bovine serum albumin (pH 7.4). The islets were then transferred to a 96-well plate (one islet/well) and incubated at 37° C. for 60 min in 200 μl of KRB buffer with 2 or 16 mM glucose, and other agents to be tested such as GLP-1 included as a control. (Zhou Y P, et al: J Biol Chem 278:51316-51323, 2003). Insulin was measured in aliquots of the incubation buffer by ELISA with a commercial kit (ALPCO Diagnostics, Windham, N.H.).
The compound had no effects on the basal insulin secretion at 2 mM glucose (G2).
On the technique in general: In an ELISA, binding on a coated surface is turned into a signal by an enzyme label.

The next experiment concerns the target recombinant human OXGR1 (Homo sapiens, UniProt Q96P68). Particulars: Nature 429:188-193, 2004, read-out: EC50 for activation of OXGR1; cited from earlier work.
Another experiment deals with recombinant mouse OXGR1 (Mus musculus, UniProt Q6IYF8). The settings on record: Nature 429:188-193, 2004, read-out: EC50 for activation of OXGR1; cited from earlier work.
Sequence of recombinant mouse OXGR1 (Q6IYF8 whole entry): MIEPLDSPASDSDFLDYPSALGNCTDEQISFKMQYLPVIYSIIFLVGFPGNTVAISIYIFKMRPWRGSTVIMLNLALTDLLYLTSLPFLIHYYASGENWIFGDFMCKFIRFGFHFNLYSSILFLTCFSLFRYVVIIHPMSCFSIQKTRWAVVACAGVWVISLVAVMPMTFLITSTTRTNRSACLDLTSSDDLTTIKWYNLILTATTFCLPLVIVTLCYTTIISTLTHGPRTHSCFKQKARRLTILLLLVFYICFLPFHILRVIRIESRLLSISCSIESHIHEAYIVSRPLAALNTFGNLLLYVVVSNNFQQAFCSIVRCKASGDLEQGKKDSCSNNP

Sequence of recombinant human OXGR1 (Q96P68 whole entry): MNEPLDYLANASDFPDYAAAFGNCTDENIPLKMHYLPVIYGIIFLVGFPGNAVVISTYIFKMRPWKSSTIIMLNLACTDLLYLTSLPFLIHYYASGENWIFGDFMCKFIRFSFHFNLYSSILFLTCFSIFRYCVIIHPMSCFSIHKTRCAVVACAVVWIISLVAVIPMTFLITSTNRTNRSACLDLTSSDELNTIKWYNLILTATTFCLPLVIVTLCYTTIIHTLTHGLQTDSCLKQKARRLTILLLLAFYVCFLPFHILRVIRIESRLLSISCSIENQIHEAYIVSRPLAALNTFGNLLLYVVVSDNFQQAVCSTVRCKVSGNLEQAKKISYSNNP

In general, EC50 refers to the concentration giving half of the maximal effect. In the case of `O=C(O)CCC(=O)C(=O)O` [α-KG, α-ketoglutarate], the “effect on basal insulin secretion at 2 mM glucose (G2)” value in the experiment on isolated mouse islets (2 mM glucose) is recorded as “no effects”. Also, the “effect on 16 mM glucose (G16) stimulated insulin secretion” value in the experiment on isolated mouse islets (16 mM glucose) is recorded as “dose-dependently enhanced”. Further, the concentration for a half-maximal effect (EC50) on recombinant human OXGR1 and on recombinant mouse OXGR1 was 70 µM throughout.
